Common to all, as to assay type: binding
In assay [1] the target is T1, TTN5 (TITAN 5) (Arabidopsis thaliana, UniProt Q9ZPX1).
T1 construct: gene ARL2
T1 sequence (Q9ZPX1 1-185 limits assumed): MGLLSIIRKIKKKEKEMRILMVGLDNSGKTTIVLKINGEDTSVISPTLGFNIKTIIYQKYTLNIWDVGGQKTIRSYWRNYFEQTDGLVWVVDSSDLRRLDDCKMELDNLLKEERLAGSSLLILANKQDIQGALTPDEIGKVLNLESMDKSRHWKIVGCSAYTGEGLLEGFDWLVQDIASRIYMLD
The assay can be described thus: pull-down of GST-TTN5, bound nucleotide by HPLC. The note with it: GST fusion; excess free GppNHp; single experiment.

Assay [2] deals with T1, TTN5 (TITAN 5). The assay can be described thus: stopped-flow fluorimetry, koff/kon.
Assay [3] has as its target T2, TTN5 (TITAN 5) (Arabidopsis thaliana, UniProt Q9ZPX1, Q70L).
T2 construct: gene ARL2
T2 sequence (Q9ZPX1 1-185 Q70L limits assumed): T1 sequence (Q9ZPX1 1-185 limits assumed) with Q70L
As to the kind of experiment: stopped-flow fluorimetry, koff/kon.

Assay [4] deals with T3, TTN5 (TITAN 5) (Arabidopsis thaliana, UniProt Q9ZPX1, T30N).
T3 construct: gene ARL2
T3 sequence (Q9ZPX1 1-185 T30N limits assumed): T1 sequence (Q9ZPX1 1-185 limits assumed) with T30N
As to the kind of experiment: stopped-flow fluorimetry, koff/kon.

Positions count from the first letter of the chain named.

Consider `Nc1nc2c(ncn2[C@@H]2O[C@H](COP(=O)(O)OP(=O)(O)NP(=O)(O)O)[C@@H](O)[C@H]2O)c(=O)[nH]1` [GppNHp], for which the “pull-down of GST-TTN5, bound nucleotide by HPLC” value at TTN5 (TITAN 5) [1] was “Isolated GST–TTN5 bound to increasing amounts of GppNHp”.

In general, Kd refers to a measure of binding affinity in units of concentration. Read a high Kd as weaker binding. On to `CNc1ccccc1C(=O)O[C@H]1C[C@H](n2cnc3c(=O)[nH]c(N)nc32)O[C@@H]1COP(=O)(O)OP(=O)(O)O` [mdGDP, 2-deoxy-3-O-N-methylanthraniloyl GDP], for which the Kd came out at 267 nM at TTN5 (TITAN 5) [2], 61 nM on TTN5 (TITAN 5) [3] and 3090 nM at TTN5 (TITAN 5) [4].

The record behind these values is publication PMC11361645, “Characterization of the small Arabidopsis thaliana GTPase and ADP-ribosylation factor-like 2 protein TITAN 5” (Journal of Cell Science, 2024).
